Experimental findings from ChEMBL document CHEMBL5634120, “Natural phytoalexins inspired the discovery of new biphenyls as potent antifungal agents for treatment of invasive fungal infections” (Eur J Med Chem, 2023) are described below.

The subject of data set [1] is Cryptococcus neoformans. As to the kind of experiment: Antifungal activity against Cryptococcus neoformans ATCC32045 assessed as inhibition of fungal growth incubated for 72 hrs by broth microdilution method. It is filed as functional. For orientation: In broth dilution the organism is exposed to a series of concentrations in liquid medium.
For data set [2], the system named is Cryptococcus neoformans. Briefly: Fungicidal activity against Cryptococcus neoformans ATCC32045 incubated for 72 hrs. The data set is classed as functional.
Data set [3] deals with Candida tropicalis. As to the kind of experiment: Antifungal activity against Candida tropicalis ATCC1369 assessed as inhibition of fungal growth incubated for 72 hrs by broth microdilution method. It is filed as functional.
For data set [4], the system named is Candida albicans. Briefly: Antifungal activity against Candida albicans ATCC10231 assessed as inhibition of fungal growth incubated for 72 hrs by broth microdilution method. It is filed as functional.
For data set [5], the system named is Cryptococcus neoformans. Briefly: Selectivity ratio of MFC for Cryptococcus neoformans ATCC32045 to MIC for Cryptococcus neoformans ATCC32045. The data set is classed as functional.
Data set [6] relates to Aspergillus fumigatus. Briefly: Antifungal activity against Aspergillus fumigatus AS3.3913 assessed as inhibition of fungal growth incubated for 72 hrs by broth microdilution method. It is filed as functional.
For data set [7], the system named is Cell membrane. As to the kind of experiment: Disruption of membrane integrity in Cryptococcus neoformans ATCC32045 assessed as blue fluorescence at 2 ug/ml incubated for 4 hrs by DAPI staining based fluorescence microscopic analysis. The data set is classed as subcellular. As to conditions: dose 2.0 µg/ml.
Data set [8] deals with Cryptococcus neoformans. Briefly: Antifungal activity against Cryptococcus neoformans ATCC32045 assessed as inhibition of urease production at 2 ug/ml. It is filed as functional, organism-based. The settings on record: dose 2.0 µg/ml.
The subject of data set [9] is Cell membrane. Briefly: Disruption of cell membrane in Cryptococcus neoformans ATCC32045 assessed as cell disintegration at 2 ug/ml incubated for 12 hrs by scanning electron microscopy analysis. The data set is classed as subcellular. The settings on record: dose 2.0 µg/ml.
The test system of data set [10] is Cell membrane. As to the kind of experiment: Disruption of membrane integrity in Cryptococcus neoformans ATCC32045 assessed as red fluorescence at 2 ug/ml incubated for 4 hrs by PI staining based fluorescence microscopic analysis. As to conditions: dose 2.0 µg/ml. The data set is classed as subcellular.
In data set [11] the test system is Cryptococcus neoformans. As to the kind of experiment: Antifungal activity against Cryptococcus neoformans ATCC32045 assessed as inhibition of melanin production at 8 ug/ml. As to conditions: dose 8.0 µg/ml. The data set is classed as functional, organism-based.
The test system of data set [12] is Cryptococcus neoformans. Briefly: Antibiofilm activity against Cryptococcus neoformans ATCC32045 assessed as inhibition of biofilm formation incubated for 24 hrs by XTT reduction assay. It is filed as functional, organism-based. The settings on record: dose 0.125-8 µg/ml. Background: Tetrazolium assays rely on reduction of a dye to a coloured formazan, in cell work by metabolically active cells.

Data set [13] relates to Cryptococcus neoformans. As to the kind of experiment: Antibiofilm activity against Cryptococcus neoformans ATCC32045 assessed as inhibition of biofilm formation at >=4 ug/ml incubated for 24 hrs by XTT reduction assay relative to control. The data set is classed as functional. As to conditions: dose >= 4 µg/ml.
Data set [14] concerns Cryptococcus neoformans. As to the kind of experiment: Disruption of 24 hrs preformed biofilm in Cryptococcus neoformans ATCC32045 incubated for 24 hrs by XTT reduction assay. The data set is classed as functional, organism-based. As to conditions: dose 0.125-8 µg/ml.
Data set [15] deals with Cell membrane. Briefly: Disruption of cell membrane in Cryptococcus neoformans ATCC32045 assessed as cell wrinkling at 2 ug/ml incubated for 12 hrs by scanning electron microscopy analysis. The data set is classed as subcellular. As to conditions: dose 2.0 µg/ml.
Data set [16] deals with Cryptococcus neoformans. Briefly: Fungicidal activity against Cryptococcus neoformans ATCC32045 assessed as reduction in viable colony counts at 0.5 to 1 ug/ml observed within 4 hrs by time kill assay (reference value: 6 log10CFU/ml). The data set is classed as functional. As to conditions: dose 0.5-1 µg/ml.
For data set [17], the system named is Cell membrane. Briefly: Disruption of cell membrane in Cryptococcus neoformans ATCC32045 assessed as cell shrinkage at 2 ug/ml incubated for 12 hrs by scanning electron microscopy analysis. As to conditions: dose 2.0 µg/ml. The data set is classed as subcellular.
Data set [18] in a line: Cytotoxicity against HUVEC cells assessed as inhibition of cell viability incubated for 24 hrs by CCK-8 assay. It is filed as toxicity, cell-based. The settings on record: human.
The test system of data set [19] is Cryptococcus neoformans. As to the kind of experiment: Antibiofilm activity against Cryptococcus neoformans ATCC32045 assessed as reduction in 24 hrs preformed biofilm at 1 ug/ml incubated for 24 hrs by XTT reduction assay relative to control. The data set is classed as functional. More on the design: scale not given: the % may be the effect or the level left. As to conditions: dose 1 µg/ml.

For data set [20], the system named is Cryptococcus neoformans. As to the kind of experiment: Fungicidal activity against Cryptococcus neoformans ATCC32045 assessed as reduction in viable colony count incubated for 12 hrs by time kill assay. It is filed as functional, organism-based.
A short description of data set [21]: Selectivity index, ratio of CC50 for HUVEC cells to MIC for antifungal activity against Cryptococcus neoformans ATCC32045. The data set is classed as toxicity. As to conditions: human, read-out: Selectivity Index.

In brackets after ≈: the same amount, converted by molar mass. Activity calls are given as the source filed them.

In the case of `CCCCCc1ccc(-c2ccc(O)cc2O)cc1`, the MIC (usually the smallest concentration in the dilution series that meets the test's criterion for growth inhibition) in data set [1] is 0.5 µg/mL (≈ 1.95 µM); in data set [3], 2 µg/mL (≈ 7.8 µM); in [4] it was 2 µg/mL (≈ 7.8 µM); in [6], 8 µg/mL (≈ 31.2 µM). Further, the MFC (usually the smallest concentration meeting the test's criterion for killing the fungus) in [2] turned out to be 0.5 µg/mL (≈ 1.95 µM). In addition, in [5], the Selectivity ratio amounted to 1.

Regarding `CCCCCc1ccc(-c2ccc(O)c(O)c2)cc1`, the minimal inhibitory concentration (MIC) turned out to be 0.25 µg/mL (≈ 0.975 µM) in [1], 2 µg/mL (≈ 7.8 µM) in data set [3], 4 µg/mL (≈ 15.6 µM) in data set [4] and 16 µg/mL (≈ 62.4 µM) in data set [6]. For the same molecule, the MFC in data set [2] is 0.5 µg/mL (≈ 1.95 µM). For the same molecule, the Selectivity ratio in data set [5] worked out at 2.

`CCCCCc1ccc(-c2cc(O)cc(O)c2)cc1`: the outcome in [7], in [8], in [9], in data set [10], in [11] and in data set [15] was Active. Further, the result in [17] was Active. Also, the MIC in data set [1] came out at 0.25 µg/mL (≈ 0.975 µM); in data set [3] it was 1 µg/mL (≈ 3.9 µM); in [4] it was 2 µg/mL (≈ 7.8 µM); in data set [6] it was 8 µg/mL (≈ 31.2 µM). Moreover, the Activity result in [12] was “Dose-Dependent Effect”; in data set [14] it was “Dose-Dependent Effect”; in data set [16] it was 4 log10CFU/ml; in data set [19], around 71.6%; in data set [20] it was “Dose-Dependent Effect”. In addition, the “inhibition (INH)” value in [13] was around 100%. The molecule also gave an MFC in [2] of 1 µg/mL (≈ 3.9 µM). Besides, in data set [18], the CC50 (commonly the concentration at which the toxic effect on the cells reaches its halfway point) at 24 h came out at 19.4 µg/mL (≈ 75.7 µM). The Selectivity ratio in data set [5] came to 4.

As for `C[C@@H]1[C@H](O)[C@@H](C)/C=C/C=C/C=C/C=C/C=C/C=C/C=C/[C@H](O[C@@H]2O[C@H](C)[C@@H](O)[C@H](N)[C@@H]2O)C[C@@H]2O[C@](O)(C[C@@H](O)C[C@@H](O)[C@H](O)CC[C@@H](O)C[C@@H](O)CC(=O)O[C@H]1C)C[C@H](O)[C@H]2C(=O)O` [AMPHOTERICIN B], the outcome in data set [7] and in data set [10] was Active. Further, the MIC in data set [1] worked out at 0.25 µg/mL (≈ 0.271 µM); in data set [3], 0.5 µg/mL (≈ 0.541 µM); in data set [4], 0.5 µg/mL (≈ 0.541 µM); in data set [6], 2 µg/mL (≈ 2.16 µM). Besides, the MFC in data set [2] was 2 µg/mL (≈ 2.16 µM). For the same molecule, the values for the Activity in [16] and in [20] were 4 log10CFU/ml and “Dose-Dependent Effect”, respectively. For the same molecule, in [21], the Selectivity ratio came out at 16. In addition, the CC50 at 24 h in data set [18] was 4.12 µg/mL (≈ 4.46 µM).
